Test system: HEK293T-Gα16gust44 cells transfected with empty vector (mock)
Experiment: Calcium imaging assay (FLIPR), empty vector control (mock)
Format: cell-based
Experimental: This set of bile acids was chosen because of their commercial availability in high purities, their diversity within the class of bile acids and their previous detection and quantitation in human blood. Stock solutions were prepared in DMSO.
As basal growth medium for the HEK293T-Gα16gust44 cell line[17],[59] served Dulbecco’s modified eagle medium (DMEM) (Thermo Fisher Scientific, Darmstadt, Germany) supplemented with 10 % fetal bovine serum (Sigma-Aldrich, Steinheim, Germany), 2 mM L-glutamine (Sigma-Aldrich, Steinheim, Germany), 100 units/ml penicillin (Sigma Aldrich, Steinheim, Germany) and 100 µg/ml streptomycin (Sigma Aldrich, Steinheim, Germany). Growth conditions were 37 °C, 5 % CO2 and saturated air-humidity[60].
HEK293T-Gα16gust44 cells were seeded on poly-D-lysine (10 µg/ml) coated 96-well plates to reach a confluence of 40-60 % the next day. For transient transfection 150 ng of plasmid DNA containing the receptor of interest and 0.3 µl lipofectamine 2000 (Thermo Fisher Scientific, Darmstadt, Germany) per well were used and transfection took place according to the manual of lipofectamine 2000. […] The empty vector DNA (mock) was transfected as negative control[14],[41].
Cells were loaded using the calcium-sensitive fluorescent dye Fluo-4-AM (Abcam, Cambridge, Great Britain) in the presence of 2.5 mM probenecid (Sigma-Aldrich, Steinheim, Germany) the day after transfection[13],[41]. 1 h after loading, cells were washed with C1 buffer using a BioTek Cell Washer, incubated in the dark for half an hour and washed again. For automated agonist application and measurement of fluorescence changes, a FLIPR^TETRA device (Molecular Devices, San José, United States) was used. Viability of cells was tested by application of 100 nM Somatostatin 14 (Bachem, Bubendorf, Switzerland)[42].
Measured data were negative control corrected by subtracting the signal of the mock-transfected cells and exported to Microsoft Excel using the FLIPR software ScreenWorks 4.2. In Microsoft Excel software, standardization of maximum fluorescence intensities to the basal fluorescence and normalization to the buffer-only control was done to calculate the relative fluorescence changes (ΔF/F).
Initial screening experiments performed in duplicate wells were confirmed by at least one replication and representative traces were selected for display. All dose-response relationships were determined by three independent experiments (biological replicates) performed in duplicates (technical replicates). Threshold concentrations, defined as lowest substance concentrations leading to statistically significant elevated fluorescence changes in receptor-transfected cells compared with empty vector-transfected cells, were determined using SigmaPlot with Student’s t-test to evaluate statistical significance (p < 0.01).

[1] = Mock, sheet TAS2R4, conc. 0,01 mM
[2] = Mock, sheet TAS2R4, conc. 0,03 mM
[3] = Mock, sheet TAS2R4, conc. 0,00003 mM
[4] = Mock, sheet TAS2R4, conc. 0,0001 mM
[5] = Mock, sheet TAS2R4, conc. 0,0003 mM
[6] = Mock, sheet TAS2R4, conc. 0,001 mM
[7] = Mock, sheet TAS2R14, conc. 0,01 mM
[8] = Mock, sheet TAS2R14, conc. 0,00003 mM
[9] = Mock, sheet TAS2R14, conc. 0,0001 mM
[10] = Mock, sheet TAS2R14, conc. 0,0003 mM
[11] = Mock, sheet TAS2R14, conc. 0,001 mM
[12] = Mock, sheet TAS2R14, conc. 0,003 mM
[13] = Mock, sheet Tas2r108, conc. 0,01 mM
[14] = Mock, sheet Tas2r108, conc. 0,03 mM
[15] = Mock, sheet Tas2r108, conc. 0,00003 mM
[16] = Mock, sheet Tas2r108, conc. 0,0001 mM
[17] = Mock, sheet Tas2r108, conc. 0,0003 mM
[18] = Mock, sheet Tas2r108, conc. 0,001 mM
[19] = Mock, sheet Tas2r108, conc. 0,003 mM
[20] = conc. 0,01 mM, Mock (sheet TAS2R1)
[21] = conc. 0,03 mM, Mock (sheet TAS2R1)
[22] = conc. 0,00003 mM, Mock (sheet TAS2R1)
[23] = conc. 0,0001 mM, Mock (sheet TAS2R1)
[24] = conc. 0,0003 mM, Mock (sheet TAS2R1)
[25] = conc. 0,001 mM, Mock (sheet TAS2R1)
[26] = conc. 0,003 mM, Mock (sheet TAS2R1)
[27] = Mock, sheet Tas2r105, conc. 0,01 mM
[28] = Mock, sheet Tas2r105, conc. 0,00003 mM
[29] = Mock, sheet Tas2r105, conc. 0,0001 mM
[30] = Mock, sheet Tas2r105, conc. 0,0003 mM
[31] = Mock, sheet Tas2r105, conc. 0,001 mM
[32] = Mock, sheet Tas2r105, conc. 0,003 mM
[33] = Mock (sheet Tas2r123), conc. 0,01 mM
[34] = Mock (sheet Tas2r123), conc. 0,03 mM
[35] = Mock (sheet Tas2r123), conc. 0,0001 mM
[36] = Mock (sheet Tas2r123), conc. 0,0003 mM
[37] = Mock (sheet Tas2r123), conc. 0,001 mM
[38] = Mock (sheet Tas2r123), conc. 0,003 mM
[39] = Mock, sheet TAS2R4, conc. 0,003 mM

In the case of C[C@H](CCC(=O)NCCS(=O)(=O)O)[C@H]1CC[C@H]2[C@@H]3CC[C@@H]4C[C@H](O)CC[C@]4(C)[C@H]3CC[C@]12C [Taurolithocholic Acid, taurolithocholic acid], the “Δ F/F” value (Mock (sheet Tas2r144), conc. 0,01 mM) is reported as 0.0005692, the “Δ F/F” value (Mock (sheet Tas2r144), conc. 0,1 mM) is reported as 0.004595 and the “Δ F/F” value (Mock (sheet Tas2r144), conc. 0,03 mM) is reported as 0.0003601. For the same compound, the “Δ F/F” value (Mock (sheet Tas2r144), conc. 0,00003 mM) was 0.006114, the “Δ F/F” value (Mock (sheet Tas2r144), conc. 0,0001 mM) was 0.006504 and the “Δ F/F” value (Mock (sheet Tas2r144), conc. 0,0003 mM) was 0.0008548. For the same compound, the “Δ F/F” value (Mock (sheet Tas2r144), conc. 0,001 mM) was 0.004624, the “Δ F/F” value (Mock (sheet Tas2r144), conc. 0,003 mM) was 0.001997 and the “Δ F/F” value [1] was -0.008514. The “Δ F/F” value (Mock, sheet TAS2R4, conc. 0,1 mM) was -0.00794, the “Δ F/F” value [2] was -0.01099 and the “Δ F/F” value (Mock, sheet TAS2R4, conc. 0,000001 mM) was -0.003137. The “Δ F/F” value (Mock, sheet TAS2R4, conc. 0,000003 mM) was -0.007155, the “Δ F/F” value (Mock, sheet TAS2R4, conc. 0,00001 mM) was -0.00504 and the “Δ F/F” value [3] was -0.003977. The “Δ F/F” value [4] was -0.003234, the “Δ F/F” value [5] was -0.004056 and the “Δ F/F” value [6] was -0.007019. The “Δ F/F” value [7] was -0.03147, the “Δ F/F” value (Mock, sheet TAS2R14, conc. 0,00001 mM) was -0.004277 and the “Δ F/F” value [8] was -0.0006944. For the same compound, the “Δ F/F” value [9] was -0.01329, the “Δ F/F” value [10] was -0.01832 and the “Δ F/F” value [11] was -0.01976. For the same compound, the “Δ F/F” value [12] was -0.0246, the “Δ F/F” value (Mock, sheet TAS2R46, conc. 0,01 mM) was -0.02971 and the “Δ F/F” value (Mock, sheet TAS2R46, conc. 0,1 mM) was -0.009753. The “Δ F/F” value (Mock, sheet TAS2R46, conc. 0,03 mM) was -0.03052, the “Δ F/F” value (Mock, sheet TAS2R46, conc. 0,0001 mM) was -0.0128 and the “Δ F/F” value (Mock, sheet TAS2R46, conc. 0,0003 mM) was -0.01683. The “Δ F/F” value (Mock, sheet TAS2R46, conc. 0,001 mM) was -0.02076, the “Δ F/F” value (Mock, sheet TAS2R46, conc. 0,003 mM) was -0.0306 and the “Δ F/F” value [13] was -0.02695. For the same compound, the “Δ F/F” value (Mock, sheet Tas2r108, conc. 0,1 mM) was -0.01465, the “Δ F/F” value [14] was -0.03132 and the “Δ F/F” value (Mock, sheet Tas2r108, conc. 0,00001 mM) was -0.01948. For the same compound, the “Δ F/F” value [15] was -0.01658, the “Δ F/F” value [16] was -0.01596 and the “Δ F/F” value [17] was -0.01689. For the same compound, the “Δ F/F” value [18] was -0.02887, the “Δ F/F” value [19] was -0.03792 and the “Δ F/F” value [20] was 0.0009651. For the same compound, the “Δ F/F” value [21] was -0.0002852, the “Δ F/F” value (conc. 0,000001 mM, Mock (sheet TAS2R1)) was 0.0003466 and the “Δ F/F” value (conc. 0,000003 mM, Mock (sheet TAS2R1)) was 0.0002774. The “Δ F/F” value (conc. 0,00001 mM, Mock (sheet TAS2R1)) was -0.0001438, the “Δ F/F” value [22] was 0.0007699 and the “Δ F/F” value [23] was -0.00173. The “Δ F/F” value [24] was 0.00111, the “Δ F/F” value [25] was 0.001414 and the “Δ F/F” value [26] was -0.000959.
For C[C@H](CCC(=O)O)[C@H]1CC[C@H]2[C@@H]3CC[C@@H]4C[C@H](O)CC[C@]4(C)[C@H]3CC[C@]12C [Lithocholic Acid, lithocholic acid], the “Δ F/F” value [27] was -0.0002988, the “Δ F/F” value (Mock, sheet Tas2r105, conc. 0,00001 mM) was -0.01431 and the “Δ F/F” value [28] was -0.01708. For the same compound, the “Δ F/F” value [29] was -0.01503, the “Δ F/F” value [30] was -0.01339 and the “Δ F/F” value [31] was -0.01175. The “Δ F/F” value [32] was -0.00295, the “Δ F/F” value [22] was -7.475e-5 and the “Δ F/F” value [23] was -0.001646. For the same compound, the “Δ F/F” value [24] was -0.002463, the “Δ F/F” value [25] was -0.001163 and the “Δ F/F” value [26] was -0.0001447.
C[C@H](CCC(=O)O)[C@H]1CC[C@H]2[C@@H]3[C@H](O)C[C@@H]4C[C@H](O)CC[C@]4(C)[C@H]3CC[C@]12C [Chenodeoxycholic Acid, chenodeoxycholic acid] was tested, and the “Δ F/F” value [7] was -0.007814, the “Δ F/F” value (Mock, sheet TAS2R14, conc. 0,03 mM) was -0.004111 and the “Δ F/F” value [8] was -0.01383. For the same compound, the “Δ F/F” value [9] was -0.0179, the “Δ F/F” value [10] was -0.01292 and the “Δ F/F” value [11] was -0.005111. For the same compound, the “Δ F/F” value [12] was -0.006729, the “Δ F/F” value [20] was -0.001385 and the “Δ F/F” value [22] was -0.0006042. The “Δ F/F” value [23] was -0.001709, the “Δ F/F” value [24] was -0.001427 and the “Δ F/F” value [25] was -0.001629. The “Δ F/F” value [26] was -0.001467.
In the case of C[C@H](CCC(=O)O)[C@H]1CC[C@H]2[C@@H]3[C@@H](O)C[C@@H]4C[C@H](O)CC[C@]4(C)[C@H]3CC[C@]12C [Ursodeoxycholic Acid, ursodeoxycholic acid], the “Δ F/F” value [33] is reported as -0.001066, the “Δ F/F” value [34] is reported as -0.001504 and the “Δ F/F” value [35] is reported as -0.001573. For the same compound, the “Δ F/F” value [36] was -0.001292, the “Δ F/F” value [37] was -0.005211 and the “Δ F/F” value [38] was -0.001793. The “Δ F/F” value [1] was -0.0004613, the “Δ F/F” value [2] was -0.0005491 and the “Δ F/F” value [3] was -0.0004806. The “Δ F/F” value [4] was -0.001738, the “Δ F/F” value [5] was 0.0005593 and the “Δ F/F” value [6] was -0.001147. For the same compound, the “Δ F/F” value [39] was -0.0007234, the “Δ F/F” value [20] was 0.000483 and the “Δ F/F” value [21] was -0.001233. For the same compound, the “Δ F/F” value [23] was 0.0008084, the “Δ F/F” value [24] was -0.0004379 and the “Δ F/F” value [25] was -0.001051. The “Δ F/F” value [26] was -0.001084.
For C[C@H](CCC(=O)O)[C@H]1CC[C@H]2[C@@H]3CC[C@@H]4C[C@H](O)CC[C@]4(C)[C@H]3C[C@H](O)[C@]12C [Deoxycholic Acid, deoxycholic acid], the “Δ F/F” value [33] was -0.0008829, the “Δ F/F” value [34] was -0.0003165 and the “Δ F/F” value [35] was 0.00132. The “Δ F/F” value [36] was -0.002173, the “Δ F/F” value [37] was -0.000706 and the “Δ F/F” value [38] was -0.0005125. The “Δ F/F” value [1] was 0.0004181, the “Δ F/F” value [2] was 0.001864 and the “Δ F/F” value [5] was 0.0005365. The “Δ F/F” value [6] was 0.0001116, the “Δ F/F” value [39] was 0.0001746 and the “Δ F/F” value [27] was -0.01259. The “Δ F/F” value (Mock, sheet Tas2r105, conc. 0,03 mM) was -0.004122, the “Δ F/F” value [28] was -0.01446 and the “Δ F/F” value [29] was -0.0178. The “Δ F/F” value [30] was -0.01787, the “Δ F/F” value [31] was -0.0148 and the “Δ F/F” value [32] was -0.01449. The “Δ F/F” value [13] was -0.006813, the “Δ F/F” value [14] was -0.0003425 and the “Δ F/F” value [15] was -0.01113. The “Δ F/F” value [16] was -0.01772, the “Δ F/F” value [17] was -0.01462 and the “Δ F/F” value [18] was -0.01703. For the same compound, the “Δ F/F” value [19] was -0.01481, the “Δ F/F” value [20] was -0.0008034 and the “Δ F/F” value [21] was -0.0003771. The “Δ F/F” value [24] was -0.002238, the “Δ F/F” value [25] was -0.001593 and the “Δ F/F” value [26] was -0.0004081.
